From patent US8058227B2, “Method of treating fibrosis in a subject in need thereof comprising administering a composition comprising a CSD” (Medical University of South Carolina, priority 2006, dated 2011)

Legend:
Format in all cases: cell-based, human
[1] = test system: normal lung fibroblasts (NLF); assay: CSD peptide treatment of NLF, Western blotting
Description: (§1) Fibroblasts were derived from lung tissue obtained at autopsy from scleroderma patients (SLF) and from age-, race-, and sex-matched normal subjects (NLF) and cultured as previously described (44). Cells were used in passages 2-4. The group of scleroderma patients fulfilled the criteria of American college of Rheumatology for the diagnosis of scleroderma with lung involvement. Normal human lung tissue was obtained from the Brain and Tissue Bank for Developmental Disorders (Baltimore, Md.) or from the National Disease Research Interchange (Philadelphia, Pa.). Scleroderma lung tissue was obtained from the Division of Pathology and Laboratory Medicine at the Medical University of South Carolina (MUSC). The study was approved by the Institutional Review Board for Human Subject Research at the MUSC.
(§2) The CSD peptide (amino acids 82-101 of caveolin-1; […]) (SEQ ID NO: 1) and a scrambled control peptide ([…]) (SEQ ID NO: 2) were synthesized as fusion peptides to the C terminus of the Antennapedia internalization sequence (RQIKUVFQNRRMKWKK) (SEQ ID NO: 3). Before each experiment, desiccated peptides were dissolved at a final 1 mM in 10% DMSO as described by Bernatchez et al. (4). Cells in 6-well plates at 70-80% confluence were then incubated with 1 ml serum-free DMEM containing […] CSD or scrambled peptide. After 6 h, the culture medium and cell layer were harvested.
(§3) Cell layers were harvested in boiling SDS-PAGE sample buffer; medium was dialyzed, lyophilized, and resuspended in sample buffer. Aliquots of culture medium or of cell layer representing material derived from the same number of cells was probed using the following primary antibodies and appropriate secondary antibodies. Culture medium: goat anti-human collagen I (AB758P) and rabbit anti-human tenascin-C (AB19011) from Chemicon International (Temecula, Calif.). Cell layer: rabbit antibodies against PKCα (sc-208), PKCε (sc-214), activated JNK (sc-12882), activated Akt Thr 308 (sc-166646R) and caveolin-1 (sc-894) from Santa Cruz Biotechnology (Santa Cruz, Calif.); rabbit antibodies against ERK 1/2 (9102), activated ERK 1/2 (9106), JNK (9252), Akt (9272), MEK 1/2 (9122), and activated MEK 1/2 (9121) from Cell Signaling (Beverly, Mass.); mouse monoclonal anti-ASMA (clone 1A4) from Sigma (Saint Louis, Mo.), and mouse monoclonal anti-actin (MAB1501) from Chemicon International (Temecula, Calif.).
(§4) Immunoreactive bands were quantified by densitometry using the Image 1.32J NIH software. For statistical analysis the raw densitometric data were processed and analyzed using the Prism 3.0 (GraphPad Software Inc.) statistical analysis software.

[2] = test system: scleroderma lung fibroblasts (SLF); assay: CSD peptide treatment of SLF, Western blotting
Description: as §1, §2, §3, §4

[3] = test system: normal lung fibroblasts (NLF); assay: Immunocytochemistry and laser confocal microscopy of CSD peptide-treated NLF
Method: NLF or SLF cultured in 4-well glass chamber slides (Nalge Nunc International, Naperville, Ill.) as previously described (43) were incubated with CSD peptide or scrambled (Scr) peptide, fixed, permeabilized, and stained red with 7-aminoactinomycin D to detect nuclei and green using appropriate primary and secondary antibodies to detect caveolin-1 or ph-ERK. Images were captured by confocal microscopy.
NLF or SLF cultured in 4-well glass chamber slides (Nalge Nunc International, Naperville, Ill.) as previously described (43) were incubated with CSD peptide or scrambled (Scr) peptide, fixed, permeabilized, and stained red with 7-aminoactinomycin D to detect nuclei and green using appropriate primary and secondary antibodies to detect ph-JNK or ph-Akt. Images were captured by confocal microscopy.
NLF and SLF were cultured in 4-well glass chamber slides (Nalge Nunc International, Naperville, Ill.) and stained as previously described (43) using the indicated primary antibodies and appropriate secondary antibodies tagged with Alexa Fluoro® 488 (Molecular Probes, Eugene, Oreg.). Nuclei were stained with 7-aminoactinomycin D (Molecular Probes, Eugene, Oreg.). Images were acquired using a Zeiss 510SML Laser Confocal Microscope (excitation S490/20, emission D528/38) fitted with an oil-immersion objective (40×/1.4).

[4] = 5 μM CSD peptide vs scrambled peptide
[5] = 5 μM CSD peptide vs scrambled peptide, collagen in culture medium, Western blotting
[6] = CSD peptide vs scrambled peptide

## DGIWKASFTTFTVTKYWFYR [CSD peptide]
[1]; 5 μM CSD
  time in which inhibition of collagen expression occurs: less than 5 hours
[1]; [4]
  decrease of MEK/ERK activation: about 50%
[1]; [5]
  inhibition of collagen expression: > 95%
[1]; CSD peptide vs Scr peptide
  activation of Akt: inhibited
  activation of JNK: inhibited
  expression of total MEK, total ERK, total Akt, or total JNK: did not affect
[1]; [6]
  expression of caveolin-1 itself, PKCα, or PKCε: did not affect
  tenascin-C expression: inhibited
[2]; 5 μM CSD
  time in which inhibition of collagen expression occurs: less than 5 hours
[2]; [4]
  decrease of MEK/ERK activation: about 50%
[2]; [5]
  inhibition of collagen expression: > 95%
[2]; CSD peptide vs Scr peptide
  activation of Akt: inhibited
  activation of JNK: inhibited
  expression of total MEK, total ERK, total Akt, or total JNK: did not affect
[2]; [6]
  ASMA expression: inhibited
  expression of caveolin-1 itself, PKCα, or PKCε: did not affect
  tenascin-C expression: inhibited
[3]; CSD peptide vs Scr peptide
  distribution of caveolin-1 staining: staining associated with the plasma membrane becoming more prominent
  level of caveolin-1 expression detected by IHC: did not affect
[3]; CSD peptide vs control peptide
  distribution of activated Akt staining: preferentially decreased perinuclear, nuclear, and cytoplasmic staining while increasing staining associated with the plasma membrane
  distribution of activated JNK staining: preferentially decreased perinuclear staining and increased staining associated with the plasma membrane
  level of activated Akt (IHC): decreases
  level of activated ERK (IHC): decreases
  level of activated JNK (IHC): decreases
[3]; after CSD peptide
  localization of residual activated ERK staining: primarily perinuclear and cytoplasmic
